Measurements as given in patent publication US20220048915A1 (SHANGHAI PHARMACEUTICALS HOLDING CO., LTD., priority 2018, published 2022).

How the values were obtained:
p38γ = biological target: T1, p38γ (Homo sapiens, UniProt P53778); assay: In vitro inhibition of p38 kinase (LANCE Ultra TR-FRET); type: biochemical; conditions: read-out: Kinase in vitro IC50(nM) p38γ
T1 sequence (P53778 1-367): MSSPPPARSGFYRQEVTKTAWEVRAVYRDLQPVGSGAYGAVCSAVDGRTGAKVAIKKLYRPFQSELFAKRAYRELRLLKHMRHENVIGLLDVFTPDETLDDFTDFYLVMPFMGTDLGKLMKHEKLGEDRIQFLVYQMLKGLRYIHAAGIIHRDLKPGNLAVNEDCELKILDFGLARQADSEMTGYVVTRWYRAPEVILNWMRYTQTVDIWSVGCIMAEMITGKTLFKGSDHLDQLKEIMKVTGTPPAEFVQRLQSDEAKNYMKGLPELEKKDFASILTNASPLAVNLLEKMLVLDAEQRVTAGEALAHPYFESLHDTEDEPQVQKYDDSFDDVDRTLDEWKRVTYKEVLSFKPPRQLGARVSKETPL

p38α = p38α (Homo sapiens, UniProt Q16539); assay: as above; type: biochemical
[1] = Pharmacokinetic properties in mice; type: in vivo, ICR mice
[2] = male, ICR, mouse, plasma, po 10 mg/kg

p38α, sequence (Q16539 whole entry): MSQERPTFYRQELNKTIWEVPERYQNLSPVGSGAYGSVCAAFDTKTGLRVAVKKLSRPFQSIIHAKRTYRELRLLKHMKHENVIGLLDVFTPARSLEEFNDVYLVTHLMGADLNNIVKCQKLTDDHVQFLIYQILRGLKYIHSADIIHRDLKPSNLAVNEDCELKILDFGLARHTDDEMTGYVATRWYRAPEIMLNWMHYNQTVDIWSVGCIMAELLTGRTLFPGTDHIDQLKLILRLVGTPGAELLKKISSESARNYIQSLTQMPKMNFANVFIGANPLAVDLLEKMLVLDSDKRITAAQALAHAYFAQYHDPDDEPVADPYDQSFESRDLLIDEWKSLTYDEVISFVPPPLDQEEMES

IC50 (p38γ): > 3330 nM | inhibitory activity against p38α kinase compared to the positive compound (p38α): superior inhibitory activity | IC50 (p38α; read-out: Kinase in vitro IC50(nM) p38α): 9.87 nM | clearance rate as fraction of that of the positive compound [1]: 4/11 | absorption compared with the positive compound VX-745 at the same dose ([1]; 10 mg/kg): significantly higher | AUC relative to that of the positive compound ([1]; 10 mg/kg, 5-1440 minutes): 4.8 times | Thalf (iv) ([1]; iv 3 mg/kg): 2.5 h | clearance ([1]; male, ICR, mouse, plasma, iv 3 mg/kg): 6.67 mL/min/kg | Vd ([1]; male, ICR, mouse, plasma, iv 3 mg/kg, read-out: Vss (iv)): 1.2 L/kg | Cmax [1, 2]: 3000 ng/mL | MRT [1, 2]: 4.4 h | Tmax [1, 2]: 1.5 h | BA ([1]; po 10 mg/kg vs iv 3 mg/kg): 36.8% | AUClast (po) ([1]; po 10 mg/kg, 5-1440 minutes): 8944 (h)*(ng/mL)
Structure (SMILES): O=c1ncn2nc(Oc3ccc(F)cc3F)ccc2c1-c1c(Cl)cccc1Cl [Compound I-4, 5-(2,6-dichlorophenyl)-2-(2,4-difluorophenoxy)-6H-pyrimido[1,6-b]pyridazin-6-one]
